The results in this text go back to patent publication US10351546B2, “Pyridin-3-yl acetic acid derivatives as inhibitors of human immunodeficiency virus replication” (priority 2015, dated 2019).

This experiment has as its system NL-RLuc virus. The experiment is described as follows: Inhibition of HIV replication (NL-RLuc luciferase reporter virus in MT-2 cells). The following applies: Human immunodeficiency virus 1, MT2, 120 h. The experiment is classed as cell-based. The gist of the method: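 MT-2 cells were infected with NL4-3-derived virus carrying Renilla luciferase in place of part of nef, in RPMI/10% FBS, with serial compound dilutions. Luciferase read after 5 days of multicycle replication. EC50 from the median effect equation, at least 2 experiments.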
(Reporter assays use an easily measured gene product as a stand-in for the process of interest.)

SMILES strings stand for the structures. Read-outs that look alike come from different tables or passages of the source. Bounds are passed on as bounds.

Take `Cc1cccc(Cl)c1CN1CCc2cc(-c3c(CN4CCCC4)nc(C)c([C@H](OC(C)(C)C)C(=O)O)c3N3CCC(C)(C)CC3)ccc2C1` [Example 176, (S)-2-(tert-Butoxy)-2-(5-(2-(2-chloro-6-methylbenzyl)-1,2,3,4-tetrahydroisoquinolin-6-yl)-4-(4,4-dimethylpiperidin-1-yl)-2-methyl-6-(pyrrolidin-1-ylmethyl)pyridin-3-yl)acetic acid]: the EC50 (read-out: Activity) was less than 0.1 µM.

For `Cc1cccc(Cl)c1CN1CCc2cc(-c3c(CN4CCCCC4)nc(C)c([C@H](OC(C)(C)C)C(=O)O)c3N3CCC(C)(C)CC3)ccc2C1` [Example 177, (S)-2-(tert-Butoxy)-2-(5-(2-(2-chloro-6-methylbenzyl)-1,2,3,4-tetrahydroisoquinolin-6-yl)-4-(4,4-dimethylpiperidin-1-yl)-2-methyl-6-(piperidin-1-ylmethyl)pyridin-3-yl)acetic acid], under “read-out: Activity”, the EC50 was less than 0.1 µM.

Turning to `Cc1cccc(Cl)c1CN1CCc2cc(-c3c(CN4CCC5(CC4)CC5)nc(C)c([C@H](OC(C)(C)C)C(=O)O)c3N3CCC(C)(C)CC3)ccc2C1` [Example 178, (S)-2-(6-((6-Azaspiro[2.5]octan-6-yl)methyl)-5-(2-(2-chloro-6-methylbenzyl)-1,2,3,4-tetrahydroisoquinolin-6-yl)-4-(4,4-dimethylpiperidin-1-yl)-2-methylpyridin-3-yl)-2-(tert-butoxy)acetic acid], the EC50 (read-out: Activity) is less than 0.1 µM.

As to `Cc1cccc(Cl)c1CN1CCc2cc(-c3c(CN4CCC(C)(C)CC4)nc(C)c([C@H](OC(C)(C)C)C(=O)O)c3N3CCC(C)(C)CC3)ccc2C1` [Example 179, (S)-2-(tert-Butoxy)-2-(5-(2-(2-chloro-6-methylbenzyl)-1,2,3,4-tetrahydroisoquinolin-6-yl)-4-(4,4-dimethylpiperidin-1-yl)-6-((4,4-dimethylpiperidin-1-yl)methyl)-2-methylpyridin-3-yl)acetic acid], the EC50 by setting is: (read-out: Activity) less than 0.1 µM; (read-out: EC50 μM) 0.005 µM.

On to `Cc1cccc(Cl)c1CN1CCc2cc(-c3c(CN4CCC5(CCC5)CC4)nc(C)c([C@H](OC(C)(C)C)C(=O)O)c3N3CCC(C)(C)CC3)ccc2C1` [Example 180, (S)-2-(6-((7-Azaspiro[3.5]nonan-7-yl)methyl)-5-(2-(2-chloro-6-methylbenzyl)-1,2,3,4-tetrahydroisoquinolin-6-yl)-4-(4,4-dimethylpiperidin-1-yl)-2-methylpyridin-3-yl)-2-(tert-butoxy)acetic acid], for which, where the note is “read-out: Activity”, the EC50 is less than 0.1 µM.

On to `CC1(C)CCN(c2c([C@H](OC(C)(C)C)C(=O)O)cnc(CO)c2-c2ccc(OCCc3ccc(F)cc3)cc2)CC1` [Example 181, (S)-2-(tert-butoxy)-2-(4-(4,4-dimethylpiperidin-1-yl)-5-(4-(4-fluorophenethoxy)phenyl)-6-(hydroxymethyl)pyridin-3-yl)acetic acid], for which, under “read-out: Activity”, the EC50 was less than 0.1 µM.

Turning to `Cc1ncc([C@H](OC(C)(C)C)C(=O)O)c(N2CCC(C)(C)CC2)c1-c1ccc(OCCc2ccc(F)cc2)cc1` [Example 182, (S)-2-(tert-Butoxy)-2-(4-(4,4-dimethylpiperidin-1-yl)-5-(4-(4-fluorophenethoxy)phenyl)-6-methylpyridin-3-yl)acetic acid], the EC50 (read-out: Activity) was less than 0.1 µM.

As for `COCc1ncc([C@H](OC(C)(C)C)C(=O)O)c(N2CCC(C)(C)CC2)c1-c1ccc(OCCc2ccc(F)cc2)cc1` [Example 183, (S)-2-(tert-Butoxy)-2-(4-(4,4-dimethylpiperidin-1-yl)-5-(4-(4-fluorophenethoxy)phenyl)-6-(methoxymethyl)pyridin-3-yl)acetic acid], the EC50 (read-out: Activity) is less than 0.1 µM.

Regarding `CC1(C)CCN(c2c([C@H](OC(C)(C)C)C(=O)O)cnc(CCl)c2-c2ccc(OCCc3ccc(F)cc3)cc2)CC1` [Example 184, (S)-2-(tert-Butoxy)-2-(6-(chloromethyl)-4-(4,4-dimethylpiperidin-1-yl)-5-(4-(4-fluorophenethoxy)phenyl)pyridin-3-yl)acetic acid], the EC50 is, setting by setting: (read-out: Activity) less than 0.1 µM; (read-out: EC50 μM) 0.04 µM.
